Laboratory results: patent US10626094B2 (La Jolla Institute of Allergy & Immunology, priority 2014, dated 2020)

The molecules below were run against LMPTP-A (Low Molecular Weight Protein Tyrosine Phosphatase-A) enzyme (Homo sapiens (Human), UniProt P24666) (assay: LMPTP primary screening / LMPTP (OMFP) enzyme inhibition assay, fluorescence intensity). Conditions: IC50 (nM), LMPTP-A, OMFP substrate, method of Example 2.
Format: biochemical
Procedure: This assay attempts to identify inhibitors of the LMPTP-A (Low Molecular Weight Protein Tyrosine Phosphatase-A) enzyme. It is run in 1536-well format and is measured via fluorescence intensity.
A listing of materials is provided: • Item, source, catalog no. • LMPTP-A Enzyme Stock Solution (4.22 mg/ml or 206.8 μM), SBMRI Protein Facility, • N/A • OMFP, Sigma, M2629-100MG • Bis-Tris pH 6.0, Fisher Sci, BP301-100 • Triton-X 100, Sigma, T9284 • DTT, Sigma, D9779 • Mol. Grade Water, Mediatech, Inc., 46-000-CM • 1536-well black High base opaque bottom plate, Nexus Biosystems, 00019120
Final assay conditions are: • 0.625 nM LMPTP-A Enzyme • 400 μM OMFP • 50 mM Bis-Tris pH 6.0 • 1 mM DTT • 0.01% Triton-X 100 • 20 μM test compound • 3% DMSO (2% from substrate and 1% from compounds) • 6 μL reaction volume • 50 minutes incubation at room temp
Assay Procedure • 1. Prepare Reagents as described in section F. Recipe. • 2. Using LabCyte Echo, transfer 60 nL from 2 mM test compound source plate into assay plate Col. 5-48 (final concentration of test compounds is 20 μM). 60 nL of DMSO should be transferred to col. 1-4 for positive and negative control wells. • 3. Spin plates at 1000 rpm for 1 minute in centrifuge. • 4. […] Using the Bioraptr, add 3 μL/well of enzyme solution to col. 3-48. • 6. Using the Bioraptr, add 3 μL/well of substrate solution to col. 1-48. • 7. Spin plates at 1000 rpm for 1 minute in centrifuge. • 8. Incubate plates in the dark at room temperature for 50 minutes. • 9. Read plates on PerkinElmer Viewlux using a FI protocol.

LMPTP-A (Low Molecular Weight Protein Tyrosine Phosphatase-A) enzyme, sequence (P24666 whole entry): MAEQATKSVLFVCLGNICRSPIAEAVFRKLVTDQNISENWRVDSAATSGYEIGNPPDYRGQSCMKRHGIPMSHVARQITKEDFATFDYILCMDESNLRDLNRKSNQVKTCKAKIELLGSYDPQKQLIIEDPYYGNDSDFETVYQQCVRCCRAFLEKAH

Q: How did the IC50 turn out when `COc1ccc(-c2cc(Nc3ccccn3)c3ccccc3n2)cc1` [Compound G63, [2-(4-Methoxy-phenyl)-quinolin-4-yl]-pyridin-2-yl-amine] was run?
A: 801 to 5000 nM

Same assay, conditions: LMPTP-A, OMFP substrate, method of Example 2; read-out: IC50

Q: Which IC50 does the source give for `COc1ccc(-c2cc(Nc3ccc(C(F)(F)F)cc3)c3ccccc3n2)cc1` [Compound G42, [2-(4-methoxyphenyl)(4-quinolyl)][4-(trifluoromethyl)phenyl]amine] here?
A: 801 to 5000 nM

Q: How did the IC50 turn out when `COc1ccc(-c2cc(Nc3ccc(C)cc3)c3ccccc3n2)cc1` [Compound G43, [2-(4-methoxyphenyl)(4-quinolyl)](4-methylphenyl)amine] was run?
A: 801 to 5000 nM

Q: `COc1ccc(-c2cc(Nc3ccc(OC(C)C)cc3)c3ccccc3n2)cc1` [Compound G44, [2-(4-methoxyphenyl)(4-quinolyl)][4-(methylethoxy)phenyl]amine] was tested. Which IC50 did it give?
A: 801 to 5000 nM

Q: With `CCOC(=O)c1ccc(Nc2cc(-c3ccc(OC)cc3)nc3ccccc23)cc1` [Compound G45, ethyl 4-{[2-(4-methoxyphenyl)-4-quinolyl]amino}benzoate] as the molecule, how does the IC50 read?
A: > 5000 nM

Q: `COc1ccc(-c2cc(Nc3ccn(C)n3)c3ccccc3n2)cc1` [Compound G46] was tested. Which IC50 did it give?
A: 801 to 5000 nM

Q: For `COc1ccc(-c2cc(Nc3ccc(C#N)cc3)c3ccccc3n2)cc1` [Compound G47, 4-{[2-(4-methoxyphenyl)-4-quinolyl]amino}benzenecarbonitrile], which IC50 is on record?
A: 200 to 800 nM

Q: Which IC50 does the source give for `COc1ccc(-c2cc(Nc3ccc(OC)nc3)c3ccccc3n2)cc1` [Compound G48, (6-methoxy(3-pyridyl))[2-(4-methoxyphenyl)(4-quinolyl)]amine] here?
A: 200 to 800 nM

Q: How did the IC50 turn out when `COc1ccc(-c2cc(Nc3ccc(F)c(Cl)c3)c3ccccc3n2)cc1` [Compound G49, (3-chloro-4-fluorophenyl)[2-(4-methoxyphenyl)(4-quinolyl)]amine] was run?
A: 801 to 5000 nM

Q: `COc1ccc(-c2cc(Nc3cccc(CN4CCCC4)c3)c3ccccc3n2)cc1` [Compound G50, [2-(4-methoxyphenyl)(4-quinolyl)][3-(pyrrolidinylmethyl)phenyl]amine] was tested. Which IC50 did it give?
A: 200 to 800 nM

Q: How did the IC50 turn out when `COc1ccc(-c2cc(Nc3ccc(CN4CCOCC4)cc3)c3ccccc3n2)cc1` [Compound G52, [2-(4-methoxyphenyl)(4-quinolyl)][4-(morpholin-4-ylmethyl)phenyl]amine] was run?
A: 801 to 5000 nM

Q: Which IC50 does the source give for `COc1ccc(-c2cc(Nc3cccc(CN4CCCCC4)c3)c3ccccc3n2)cc1` [Compound G54, [2-(4-methoxyphenyl)(4-quinolyl)][3-(piperidylmethyl)phenyl]amine] here?
A: 801 to 5000 nM

Q: `COc1ccc(-c2cc(Nc3cccc(CN4CCOCC4)c3)c3ccccc3n2)cc1` [Compound G55, [2-(4-methoxyphenyl)(4-quinolyl)][3-(morpholin-4-ylmethyl)phenyl]amine] was tested. Which IC50 did it give?
A: 200 to 800 nM

Q: How did the IC50 turn out when `COc1ccc(-c2cc(Nc3cccc(CN4CCSCC4)c3)c3ccccc3n2)cc1` [Compound G56, [2-(4-methoxyphenyl)(4-quinolyl)][3-(1,4-thiazaperhydroin-4-ylmethyl)phenyl]amine] was run?
A: 200 to 800 nM

Q: Which IC50 does the source give for `COc1ccc(-c2cc(Nc3cccc(CN4CCCN(C)CC4)c3)c3ccccc3n2)cc1` [Compound G57, [2-(4-methoxyphenyl)(4-quinolyl)]{3-[(4-methyl(1,4-diazaperhydroepinyl))methyl]phenyl}amine] here?
A: 200 to 800 nM

Q: How did the IC50 turn out when `COc1ccc(-c2cc(Nc3cccc(CN(C)C)c3)c3ccccc3n2)cc1` [Compound G58, [(3-{[2-(4-methoxyphenyl)(4-quinolyl)]amino}phenyl)methyl]dimethylamine] was run?
A: 200 to 800 nM

Q: `COc1ccc(-c2cc(Nc3cccc(CN4CCNCC4)c3)c3ccccc3n2)cc1` [Compound G59, [2-(4-methoxyphenyl)(4-quinolyl)][3-(piperazinylmethyl)phenyl]amine] was tested. Which IC50 did it give?
A: 801 to 5000 nM

Q: With `COc1ccc(-c2cc(Nc3cccc(CN4CCN(C)CC4)c3)c3ccccc3n2)cc1` [Compound G60, [2-(4-methoxyphenyl)(4-quinolyl)]{3-[(4-methylpiperazinyl)methyl]phenyl}amine] as the molecule, how does the IC50 read?
A: 801 to 5000 nM

Q: `CCN(CC)Cc1cccc(Nc2cc(-c3ccc(OC)cc3)nc3ccccc23)c1` [Compound G61, (3-Diethylaminomethyl-phenyl)-[2-(4-methoxy-phenyl)-quinolin-4-yl]-amine] was tested. Which IC50 did it give?
A: 801 to 5000 nM

Q: How did the IC50 turn out when `COc1ccc(-c2cc(Nc3cccc(CN4CCS(=O)(=O)CC4)c3)c3ccccc3n2)cc1` [Compound G62, 4-[(3-{[2-(4-methoxyphenyl)-4-quinolyl]amino}phenyl)methyl]-1,4-thiazaperhydroine-1,1-dione] was run?
A: 801 to 5000 nM

Q: How did the IC50 turn out when `COc1ccc(-c2cc(Nc3cccnc3)c3ccccc3n2)cc1` [Compound G64] was run?
A: 801 to 5000 nM

Q: How did the IC50 turn out when `COc1ccc(-c2cc(Nc3ccncc3)c3ccccc3n2)cc1` [Compound G65, [2-(4-methoxyphenyl)(4-quinolyl)]-4-pyridylamine] was run?
A: 801 to 5000 nM

Q: `COc1ccc(-c2cc(Nc3cncnc3)c3ccccc3n2)cc1` [Compound G66, [2-(4-methoxyphenyl)(4-quinolyl)]pyrimidin-5-ylamine] was tested. Which IC50 did it give?
A: 801 to 5000 nM

Q: With `COc1ccc(-c2cc(Nc3cccc(C)n3)c3ccccc3n2)cc1` [Compound G67, [2-(4-methoxyphenyl)(4-quinolyl)](6-methyl(2-pyridyl))amine] as the molecule, how does the IC50 read?
A: 801 to 5000 nM

Q: `COc1ccc(-c2cc(Nc3ccc4ccccc4n3)c3ccccc3n2)cc1` [Compound G68, [2-(4-methoxyphenyl)(4-quinolyl)]-2-quinolylamine] was tested. Which IC50 did it give?
A: 801 to 5000 nM

Q: How did the IC50 turn out when `COc1ccc(-c2cc(Nc3cccc4cccnc34)c3ccccc3n2)cc1` [Compound G69] was run?
A: > 5000 nM

Q: How did the IC50 turn out when `COc1ccc(-c2cc(Nc3ccncn3)c3ccccc3n2)cc1` [Compound G70, [2-(4-methoxyphenyl)(4-quinolyl)]pyrimidin-4-ylamine] was run?
A: 801 to 5000 nM

Q: Which IC50 does the source give for `COc1ccc(-c2cc(Nc3ccnnc3)c3ccccc3n2)cc1` [Compound G71, [2-(4-methoxyphenyl)(4-quinolyl)]pyridazin-4-ylamine] here?
A: 801 to 5000 nM

Q: With `COc1ccc(-c2cc(Nc3ncccn3)c3ccccc3n2)cc1` [Compound G72, [2-(4-methoxyphenyl)(4-quinolyl)]pyrimidin-2-ylamine] as the molecule, how does the IC50 read?
A: 801 to 5000 nM

Q: For `COc1ccc(-c2cc(Nc3cncc(C)n3)c3ccccc3n2)cc1` [Compound G73, [2-(4-methoxyphenyl)(4-quinolyl)](6-methylpyrazin-2-yl)amine], which IC50 is on record?
A: 801 to 5000 nM

Q: With `COc1ccc(-c2cc(NCc3ccc(Cl)cc3)c3ccccc3n2)cc1` [Compound G74, [(4-chlorophenyl)methyl][2-(4-methoxyphenyl)(4-quinolyl)]amine] as the molecule, how does the IC50 read?
A: 801 to 5000 nM

Q: How did the IC50 turn out when `COc1ccc(-c2cc(NCc3ccccc3)c3ccccc3n2)cc1` [Compound G75, [2-(4-methoxyphenyl)(4-quinolyl)]benzylamine] was run?
A: 801 to 5000 nM

Q: With `COc1ccc(-c2cc(NC(C)c3ccccc3)c3ccccc3n2)cc1` (stereo not shown) [Compound G76] as the molecule, how does the IC50 read?
A: 801 to 5000 nM

Q: `COc1ccc(-c2cc(NCc3ccccc3OC)c3ccccc3n2)cc1` [Compound G77, [2-(4-methoxyphenyl)(4-quinolyl)][(2-methoxyphenyl)methyl]amine] was tested. Which IC50 did it give?
A: 801 to 5000 nM

Q: How did the IC50 turn out when `COc1ccc(-c2cc(NCc3cccc(OC)c3)c3ccccc3n2)cc1` [Compound G78, [2-(4-methoxyphenyl)(4-quinolyl)][(3-methoxyphenyl)methyl]amine] was run?
A: 801 to 5000 nM

Q: How did the IC50 turn out when `COc1ccc(CNc2cc(-c3ccc(OC)cc3)nc3ccccc23)cc1` [Compound G79, [2-(4-methoxyphenyl)(4-quinolyl)][(4-methoxyphenyl)methyl]amine] was run?
A: 801 to 5000 nM

Q: How did the IC50 turn out when `COc1ccc(-c2cc(NCc3ccccc3C(F)(F)F)c3ccccc3n2)cc1` [Compound G80, [2-(4-methoxyphenyl)(4-quinolyl)]{[2-(trifluoromethyl)phenyl]methyl}amine] was run?
A: 801 to 5000 nM

Q: For `COc1ccc(-c2cc(NCc3ccc(C(F)(F)F)cc3)c3ccccc3n2)cc1` [Compound G81, [2-(4-methoxyphenyl)(4-quinolyl)]{[4-(trifluoromethyl)phenyl]methyl}amine], which IC50 is on record?
A: 801 to 5000 nM

Q: How did the IC50 turn out when `COc1ccc(-c2cc(NCc3cccc(C#N)c3)c3ccccc3n2)cc1` [Compound G82, 3-({[2-(4-methoxyphenyl)-4-quinolyl]amino}methyl)benzenecarbonitrile] was run?
A: 801 to 5000 nM

Q: How did the IC50 turn out when `COc1ccc(-c2cc(NCCc3ccccc3)c3ccccc3n2)cc1` [Compound G83, [2-(4-methoxyphenyl)(4-quinolyl)](2-phenylethyl)amine] was run?
A: 801 to 5000 nM

Q: Which IC50 does the source give for `COc1ccc(-c2cc(NCCc3ccc(Cl)cc3)c3ccccc3n2)cc1` [Compound G84, [2-(4-chlorophenyl)ethyl][2-(4-methoxyphenyl)(4-quinolyl)]amine] here?
A: 801 to 5000 nM

Q: With `COc1ccc(CCNc2cc(-c3ccc(OC)cc3)nc3ccccc23)cc1` [Compound G85, [2-(4-methoxyphenyl)(4-quinolyl)][2-(4-methoxyphenyl)ethyl]amine] as the molecule, how does the IC50 read?
A: 801 to 5000 nM

Q: With `COc1ccc(-c2cc(NCCc3ccc(C(F)(F)F)cc3)c3ccccc3n2)cc1` [Compound G86, [2-(4-methoxyphenyl)(4-quinolyl)]{2-[4-(trifluoromethyl)phenyl]ethyl}amine] as the molecule, how does the IC50 read?
A: 801 to 5000 nM
